pEC50: −log10 of the molar value. Where two headings read alike, the source gives them in different places.
Key:
hTLR7 = molecular target: T1, hTLR7 (Homo sapiens, UniProt Q9NYK1); assay: HEK-Blue hTLR7 reporter assay (NF-kB-induced SEAP, Quanti-Blue); type: cell-based
T1 construct: expressed in transfected cells; host or cells: HEK-Blue hTLR7 reporter cell line
T1 sequence (Q9NYK1 27-1049): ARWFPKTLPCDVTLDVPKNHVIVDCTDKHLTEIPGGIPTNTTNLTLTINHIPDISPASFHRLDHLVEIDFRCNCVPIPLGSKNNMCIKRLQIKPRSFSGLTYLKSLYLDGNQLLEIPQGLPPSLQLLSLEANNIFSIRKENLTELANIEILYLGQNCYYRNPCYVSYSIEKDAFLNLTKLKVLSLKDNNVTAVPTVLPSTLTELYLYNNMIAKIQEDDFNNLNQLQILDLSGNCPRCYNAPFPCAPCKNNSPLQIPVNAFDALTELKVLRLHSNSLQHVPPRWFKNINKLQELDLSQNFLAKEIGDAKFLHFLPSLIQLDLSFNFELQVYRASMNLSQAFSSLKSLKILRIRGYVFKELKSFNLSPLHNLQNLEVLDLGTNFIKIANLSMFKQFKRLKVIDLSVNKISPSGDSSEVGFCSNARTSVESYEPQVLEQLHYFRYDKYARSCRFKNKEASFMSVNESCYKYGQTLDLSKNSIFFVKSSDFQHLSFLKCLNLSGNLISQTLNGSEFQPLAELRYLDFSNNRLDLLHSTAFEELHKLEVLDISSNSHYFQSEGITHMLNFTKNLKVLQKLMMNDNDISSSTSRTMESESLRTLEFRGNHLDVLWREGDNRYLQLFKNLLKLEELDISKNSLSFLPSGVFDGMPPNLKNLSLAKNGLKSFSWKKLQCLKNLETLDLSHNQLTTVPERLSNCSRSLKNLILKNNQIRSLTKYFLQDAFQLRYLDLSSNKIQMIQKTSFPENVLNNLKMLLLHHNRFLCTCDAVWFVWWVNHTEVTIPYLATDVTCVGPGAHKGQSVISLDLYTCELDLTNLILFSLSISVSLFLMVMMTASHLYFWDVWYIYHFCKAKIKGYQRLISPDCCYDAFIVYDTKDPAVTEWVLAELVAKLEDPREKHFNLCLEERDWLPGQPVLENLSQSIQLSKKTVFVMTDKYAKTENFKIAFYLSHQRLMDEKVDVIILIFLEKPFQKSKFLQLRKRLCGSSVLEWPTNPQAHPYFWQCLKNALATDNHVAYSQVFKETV
Procedure: HEK-Blue™ hTLR7 cells were incubated in HEK-Blue™ Detection medium and stimulated with increasing concentrations of TLR7 or TLR8 or TLR7/8 agonists. […] The EC50 was determined from dose-response curve using Prism Software.

[1] = test system: SKBR3 HER2 high expressing tumor cell line / RAW-Blue cells; assay: RAW-Blue co-culture assay with SKBR3 tumor cells (HER2 ISACs); type: cell-based, human
Procedure: RAW-Blue™ cells (Invivogen, San Diego, CA) were co-cultured with human tumor cells with different levels of HER2 expression level at 1:1 E:T ratio with total number of 1 million cells per well in the 96 wells plate. Different concentration of small molecule TLR7 agonist and conjugated ISACs, (Immune Stimulating Antibody Conjugates), were added to the co-culture cell medium. After 24 h incubation, the levels of NF-kB-induced SEAP from the RAW-Blue™ cells were determined by Quanti-Blue detection reagents (Invivogen, San Diego, CA) with readings at OD 655 nm. The dose-response curves were generated using Prism Software.

[2] = Table 19, TLR7, drug-linkers with PEG shielding, read-out: EC50

| Compound | TLR7 activity (comparison in words) (hTLR7) | tumor dependent ISAC activity [1] | pEC50 (hTLR7; [2]) | other results |
| --- | --- | --- | --- | --- |
| CCCCOc1nc(N)c2[nH]c(=O)n(Cc3ccc(CN4CCC(C5CCN(C(=O)CON)CC5)CC4)cc3)c2n1 [AXC-901, 6-amino-9-(4-((1′-(2-(aminooxy)acetyl)-4,4′-bipiperidin-1-yl)methyl)benzyl)-2-butoxy-7H-purin-8(9H)-one] | highest potency among different payload linkers | highest HER2 dependent TLR7 activities | – | pEC50 (hTLR7; Table 13, TLR7, read-out: EC50): 7.32 |
| CCCCOc1nc(N)c2[nH]c(=O)n(Cc3ccc(CN4CCC(CCNC(=O)CON)CC4)cc3)c2n1 [AXC-879, N-(2-(1-(4-((6-amino-2-butoxy-8-oxo-7H-purin-9(8H)-yl)methyl)benzyl)piperidin-4-yl)ethyl)-2-(aminooxy)acetamide] | highest potency among different TLR-agonist (payload) linkers | highest HER2 dependent TLR7 activities | – | pEC50 (hTLR7; Table 12, TLR7 agonists attached to a linker, read-out: TLR Agonist Payload + Linkers EC50): 6.82; pEC50 (hTLR7; Table 15, drug linker, read-out: TLR Agonist + Linker (DL) - EC50): 6.82; pEC50 (hTLR7; Table 15, pAF containing final metabolite, read-out: TLR Agonist + Linker + nnAA (DL-pAF) - EC50): 7.05 |
| CCCCOc1nc(N)c2[nH]c(=O)n(Cc3ccc(CN4CCC(CCNC(=O)[C@H](CCCCNC(=O)CON)NC(=O)CCOCCOCCOCCOCCOCCOCCOCCOCCOCCOCCOCCOC)CC4)cc3)c2n1 [AXC-940, (S)—N-(2-(1-(4-((6-amino-2-butoxy-8-oxo-7,8-dihydro-9H-purin-9-yl)methyl)benzyl)piperidin-4-yl)ethyl)-6-(2-(aminooxy)acetamido)-2-PEG12-amidohexanamide] | – | – | 6.19 | – |
| CCCCOc1nc(N)c2[nH]c(=O)n(Cc3ccc(CN4CCC(CCNC(=O)[C@H](CCCCNC(=O)CCOCCOCCOCCOCCOCCOCCOCCOC)NC(=O)CON)CC4)cc3)c2n1 [AXC-950, (S)—N-(2-(1-(4-((6-amino-2-butoxy-8-oxo-7,8-dihydro-9H-purin-9-yl)methyl)benzyl)piperidin-4-yl)ethyl)-2-(2-(aminooxy)acetamido)-6-PEG8-amidohexanamide] | – | – | 6.35 | – |
| CCCCOc1nc(N)c2[nH]c(=O)n(Cc3ccc(CN4CCC(CCNC(=O)C(C)(C)C)CC4)cc3)c2n1 [AXC-885, N-(2-(1-(4-((6-amino-2-butoxy-8-oxo-7H-purin-9(8H)-yl)methyl)benzyl)piperidin-4-yl)ethyl)pivalamide] | – | – | – | pEC50 (hTLR7; Table 11, TLR7 activities, read-out: EC50): 7.95 |
| CCCCOc1nc(N)c2[nH]c(=O)n(Cc3ccc(CN4CCC(CCNC(=O)[C@H](Cc5ccc(OP(=O)(O)O)cc5)NC(=O)CON)CC4)cc3)c2n1 [AXC-960, (S)-4-(3-((2-(1-(4-((6-amino-2-butoxy-8-oxo-7,8-dihydro-9H-purin-9-yl)methyl)benzyl)piperidin-4-yl)ethyl)amino)-2-(2-(aminooxy)acetamido)-3-oxopropyl)phenyl dihydrogen phosphate] | – | – | 6.57 | – |

Reference: patent US20230302150A1, “ANTIBODY-TLR AGONIST CONJUGATES, METHODS AND USES THEREOF” (Ambrx, Inc., priority 2020, published 2023)
